{"source": "patent US20130053243A1", "about": "“PLANTS HAVING INCREASED TOLERANCE TO HERBICIDES” (BASF SE, priority 2010, published 2013)", "key": {"[1]": {"target": "Chlamydomonas HPPD1 (Chlamydomonas reinhardtii, UniProt A0A2K3DET7)", "sequence (A0A2K3DET7 entry or part of it)": "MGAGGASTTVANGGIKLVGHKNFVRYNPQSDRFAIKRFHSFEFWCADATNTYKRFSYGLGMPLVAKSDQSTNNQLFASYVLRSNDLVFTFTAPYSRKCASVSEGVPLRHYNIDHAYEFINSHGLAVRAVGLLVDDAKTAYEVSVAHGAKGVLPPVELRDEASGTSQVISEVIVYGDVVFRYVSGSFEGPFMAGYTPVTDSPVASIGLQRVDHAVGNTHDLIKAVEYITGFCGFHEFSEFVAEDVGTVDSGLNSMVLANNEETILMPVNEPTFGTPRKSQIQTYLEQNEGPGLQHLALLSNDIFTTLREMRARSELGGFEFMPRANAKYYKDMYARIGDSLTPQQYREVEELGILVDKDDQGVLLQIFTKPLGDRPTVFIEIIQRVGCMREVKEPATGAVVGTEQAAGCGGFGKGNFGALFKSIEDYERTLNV", "test": "HPPD activity assay, wildtype enzyme", "type": "biochemical", "conditions": "calculated from IC50 with Cheng-Prusoff equation, read-out: dissociation constant Ki", "protocol": "HPPD produces homogentisic acid and CO2 from 4-hydroxyphenylpyruvate (4-HPP) and O2. The activity assay for HPPD is based on the analysis of homogentisic acid by reversed phase HPLC.\nThe assay mixture can contain 150 mM potassium phosphate buffer pH 7.0, 50 mM L-ascorbic acid, 1 μM FeSO4 and 7 μg of purified enzyme in a total volume of 1 ml.\nInhibitors are dissolved in DMSO (dimethylsulfoxide) to a concentration of 20 mM or 0.5 mM, respectively. From this stock solution serial five-fold dilutions are prepared in DMSO, which are used in the assay. The respective inhibitor solution accounts for 1% of the assay volume.\nAfter a preincubation of 30 min the reaction is started by adding 4-HPP to a final concentration of 0.1 mM. The reaction is allowed to proceed for 120 min at room temperature. The reaction is stopped by addition of 100 μl of 4.5 M phosphoric acid.\nActivities are normalized by setting the uninhibited enzyme activity to 100%. IC50 values are calculated using non-linear regression.\nThe assay mixture can contain 150 mM potassium phosphate buffer pH 7.0, 50 mM L-ascorbic acid, 100 μM Catalase (Sigma-Aldrich), 1 μM FeSO4 and 0.2 units of purified HPPD enzyme in a total volume of 505 μl. […]\nHGA is detected electrochemically at 750 mV (mode: DC; polarity: positive) and quantified by integrating peak areas (Empower software; Waters).\nInhibitors are dissolved in DMSO (dimethylsulfoxide) to a concentration of 0.5 mM. […] IC50 values are calculated using non-linear regression.\nUsing methods which are described in the above examples or well known in the art, purified, recombinant wildtype HPPD enzymes are characterized with respect to their kinetic properties and sensitivity towards HPPD inhibiting herbicides. Apparent michaelis constants (Km) and maximal reaction velocities (Vmax) are calculated by non-linear regression with the software GraphPad Prism 5 (GraphPad Software, La Jolla, USA) using a substrate inhibition model. […] Weighted means (by standard error) of Km and IC50 values are calculated from at least three independent experiments."}, "[2]": {"tested_on": "soybean plants, wild type (non-transformed)", "test": "Greenhouse spray test, soybean T0 cuttings", "type": "in vivo, Glycine max", "conditions": "no transgene, two weeks after treatment, scale 0 (no injury) to 9 (complete death)", "protocol": "(§1) Transgenic plants expressing heterologous HPPD or HST enzymes are tested for tolerance against coumarone-derivative herbicides in greenhouse experiments.\n(§2) For post emergence treatment, the test plants are first grown to a height of 3 to 15 cm, depending on the plant habit, and only then treated with the herbicides. For this purpose, the test plants are either sown directly and grown in the same containers, or they are first grown separately and transplanted into the test containers a few days prior to treatment.\n(§3) For testing of T0 plants, cuttings can be used. In the case of soybean plants, an optimal shoot for cutting is about 7.5 to 10 cm tall, with at least two nodes present. Each cutting is taken from the original transformant (mother plant) and dipped into rooting hormone powder (indole-3-butyric acid, IBA). The cutting is then placed in oasis wedges inside a bio-dome. Wild type cuttings are also taken simultaneously to serve as controls. The cuttings are kept in the bio-dome for 5-7 days and then transplanted to pots and then acclimated in the growth chamber for two more days. Subsequently, the cuttings are transferred to the greenhouse, acclimated for approximately 4 days, and then subjected to spray tests as indicated. Depending on the species, the plants are kept at 10-25° C. or 20-35° C. The test period extends over 3 weeks. During this time, the plants are tended and their response to the individual treatments is evaluated. Herbicide injury evaluations are taken at 2 and 3 weeks after treatment. Plant injury is rated on a scale of 0 to 9, 0 being no injury and 9 being complete death."}, "[3]": {"tested_on": "transgenic soybean plants, event AV3639 (AtHPPD)", "test": "Greenhouse spray test, transgenic soybean T0 cuttings", "type": "in vivo, Glycine max", "conditions": "two weeks after treatment, scale 0 (no injury) to 9 (complete death)", "protocol": "as §1, §2, §3"}, "[4]": {"tested_on": "transgenic soybean plants, event AV3641 (AtHPPD)", "test": "Greenhouse spray test, transgenic soybean T0 cuttings", "type": "in vivo, Glycine max", "conditions": "two weeks after treatment, scale 0 (no injury) to 9 (complete death)", "protocol": "as §1, §2, §3"}, "[5]": {"tested_on": "transgenic soybean plants, event AV3646 (CrHPPD1)", "test": "Greenhouse spray test, transgenic soybean T0 cuttings", "type": "in vivo, Glycine max", "conditions": "two weeks after treatment, scale 0 (no injury) to 9 (complete death)", "protocol": "as §1, §2, §3"}, "[6]": {"tested_on": "transgenic soybean plants, event AV3653 (AtHPPD)", "test": "Greenhouse spray test, transgenic soybean T0 cuttings", "type": "in vivo, Glycine max", "conditions": "two weeks after treatment, scale 0 (no injury) to 9 (complete death)", "protocol": "as §1, §2, §3"}, "[7]": {"tested_on": "transgenic soybean plants, event LG4564", "test": "Greenhouse spray test, transgenic soybean T0 cuttings", "type": "in vivo, Glycine max", "conditions": "event LG4564, CrHPPD2 (head unclear), two weeks after treatment, scale 0 (no injury) to 9 (complete death)", "protocol": "as §1, §2, §3"}, "[8]": {"tested_on": "transgenic soybean plants, event LG4628 (CrHPPD2)", "test": "Greenhouse spray test, transgenic soybean T0 cuttings", "type": "in vivo, Glycine max", "conditions": "two weeks after treatment, scale 0 (no injury) to 9 (complete death)", "protocol": "as §1, §2, §3"}}, "data": [{"smiles": "CC1=NOC(c2c(Cl)ccc(C3=C(O)c4ncccc4N(CC(F)F)S3(=O)=O)c2Cl)C1", "note": "(stereo not shown) [Inhibitor 1, 3-[2,4-dichloro-3-(3-methyl-4,5-dihydroisoxazol-5-yl)phenyl]-1-(2,2-difluoroethyl)-2,2-dioxo-pyrido[3,2-c]thiazin-4-ol]", "values": [{"measurement": "Ki", "setting": "[1]", "value": 29, "unit": "nM"}, {"measurement": "Injury evaluation (plant injury rating)", "setting": "[2]; 50 g/ha", "value": 4.5}, {"measurement": "Injury evaluation (plant injury rating)", "setting": "[2]; 100 g/ha", "value": 5.5}, {"measurement": "Injury evaluation (plant injury rating)", "setting": "[2]; 200 g/ha", "value": 6}, {"measurement": "Injury evaluation (plant injury rating)", "setting": "[3]; 50 g/ha", "value": 3}, {"measurement": "Injury evaluation (plant injury rating)", "setting": "[3]; 100 g/ha", "value": 2}, {"measurement": "Injury evaluation (plant injury rating)", "setting": "[3]; 200 g/ha", "value": 3}, {"measurement": "Injury evaluation (plant injury rating)", "setting": "[4]; 50 g/ha", "value": 2}, {"measurement": "Injury evaluation (plant injury rating)", "setting": "[4]; 100 g/ha", "value": 2}, {"measurement": "Injury evaluation (plant injury rating)", "setting": "[4]; 200 g/ha", "value": 3}, {"measurement": "Injury evaluation (plant injury rating)", "setting": "[5]; 50 g/ha", "value": 3}, {"measurement": "Injury evaluation (plant injury rating)", "setting": "[5]; 100 g/ha", "value": 4}, {"measurement": "Injury evaluation (plant injury rating)", "setting": "[5]; 200 g/ha", "value": 4}, {"measurement": "Injury evaluation (plant injury rating)", "setting": "[6]; 50 g/ha", "value": 3}, {"measurement": "Injury evaluation (plant injury rating)", "setting": "[6]; 100 g/ha", "value": 3}, {"measurement": "Injury evaluation (plant injury rating)", "setting": "[6]; 200 g/ha", "value": 3}, {"measurement": "Injury evaluation (plant injury rating)", "setting": "[7]; 50 g/ha", "value": 3}, {"measurement": "Injury evaluation (plant injury rating)", "setting": "[7]; 100 g/ha", "value": 3}, {"measurement": "Injury evaluation (plant injury rating)", "setting": "[7]; 200 g/ha", "value": 4}, {"measurement": "Injury evaluation (plant injury rating)", "setting": "[8]; 50 g/ha", "value": 4}, {"measurement": "Injury evaluation (plant injury rating)", "setting": "[8]; 100 g/ha", "value": 3}, {"measurement": "Injury evaluation (plant injury rating)", "setting": "[8]; 200 g/ha", "value": 4}]}, {"smiles": "Cc1c(C(=O)c2cnn(C)c2O)ccc(S(C)(=O)=O)c1C1=NOCC1", "note": "[Topramezone, reference compound]", "values": [{"measurement": "Ki", "setting": "[1]", "value": 38, "unit": "nM"}, {"measurement": "Injury evaluation (plant injury rating)", "setting": "[2]; 6.25 g/ha", "value": 7}, {"measurement": "Injury evaluation (plant injury rating)", "setting": "[2]; 12.5 g/ha", "value": 7}, {"measurement": "Injury evaluation (plant injury rating)", "setting": "[3]; 6.25 g/ha", "value": 4}, {"measurement": "Injury evaluation (plant injury rating)", "setting": "[3]; 12.5 g/ha", "value": 5}, {"measurement": "Injury evaluation (plant injury rating)", "setting": "[4]; 6.25 g/ha", "value": 4}, {"measurement": "Injury evaluation (plant injury rating)", "setting": "[4]; 12.5 g/ha", "value": 4}, {"measurement": "Injury evaluation (plant injury rating)", "setting": "[5]; 6.25 g/ha", "value": 6}, {"measurement": "Injury evaluation (plant injury rating)", "setting": "[5]; 12.5 g/ha", "value": 7}, {"measurement": "Injury evaluation (plant injury rating)", "setting": "[6]; 6.25 g/ha", "value": 2}, {"measurement": "Injury evaluation (plant injury rating)", "setting": "[6]; 12.5 g/ha", "value": 3}, {"measurement": "Injury evaluation (plant injury rating)", "setting": "[7]; 6.25 g/ha", "value": 3}, {"measurement": "Injury evaluation (plant injury rating)", "setting": "[7]; 12.5 g/ha", "value": 4}, {"measurement": "Injury evaluation (plant injury rating)", "setting": "[8]; 6.25 g/ha", "value": 5}, {"measurement": "Injury evaluation (plant injury rating)", "setting": "[8]; 12.5 g/ha", "value": 6}]}]}
